Results on one compound are retold here after ChEMBL document CHEMBL5154740, “Novel Aurora A and Protein Kinase C (α, β1, β2, and θ) Multitarget Inhibitors: Impact of Selenium Atoms on the Potency and Selectivity” (J Med Chem, 2022).

Assay [1] deals with Tyrosine-protein kinase ABL1 (Homo sapiens) (UniProt P00519). Nature of the assay: Inhibition of ABL1 (unknown origin) at 50 nM by Z'LYTE screening method relative to control.
For assay [2], the target named is Ribosomal protein S6 kinase alpha-1 (Homo sapiens) (UniProt Q15418). Description: Inhibition of RPS6KA1 (unknown origin) at 50 nM by Z'LYTE screening method relative to control.
The target of assay [3] is Ribosomal protein S6 kinase beta-1 (Homo sapiens) (UniProt P23443). Description: Inhibition of p70S6K (unknown origin) at 50 nM by Z'LYTE screening method relative to control.
Assay [4] addresses T1, Eukaryotic elongation factor 2 kinase (Homo sapiens) (UniProt O00418).
T1 sequence (whole entry): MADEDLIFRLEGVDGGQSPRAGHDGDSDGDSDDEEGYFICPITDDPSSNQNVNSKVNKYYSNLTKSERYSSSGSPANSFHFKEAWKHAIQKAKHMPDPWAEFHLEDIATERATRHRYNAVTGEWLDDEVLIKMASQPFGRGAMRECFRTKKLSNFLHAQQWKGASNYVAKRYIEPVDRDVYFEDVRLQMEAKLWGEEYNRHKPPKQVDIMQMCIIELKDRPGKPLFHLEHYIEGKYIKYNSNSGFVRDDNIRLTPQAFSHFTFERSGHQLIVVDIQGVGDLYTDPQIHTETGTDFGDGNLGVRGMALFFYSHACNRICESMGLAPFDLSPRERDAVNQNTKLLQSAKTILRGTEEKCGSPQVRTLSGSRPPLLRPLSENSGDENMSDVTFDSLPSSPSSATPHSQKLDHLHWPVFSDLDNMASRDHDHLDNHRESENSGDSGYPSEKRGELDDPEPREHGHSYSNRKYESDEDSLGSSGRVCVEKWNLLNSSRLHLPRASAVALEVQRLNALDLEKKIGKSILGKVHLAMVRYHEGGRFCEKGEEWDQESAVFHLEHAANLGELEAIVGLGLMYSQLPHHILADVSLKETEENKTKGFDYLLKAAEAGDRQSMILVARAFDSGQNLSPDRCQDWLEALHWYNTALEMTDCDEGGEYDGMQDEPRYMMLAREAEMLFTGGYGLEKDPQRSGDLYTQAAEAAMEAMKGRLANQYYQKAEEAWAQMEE
Description: Inhibition of EEF2K (unknown origin) at 50 nM by Z'LYTE screening method relative to control.

The target in assay [5] is Protein kinase C gamma type (Homo sapiens) (UniProt P05129). Description: Inhibition of PKC gamma (unknown origin) at 50 nM by Z'LYTE screening method relative to control.
The target of assay [6] is DNA-dependent protein kinase catalytic subunit (Homo sapiens) (UniProt P78527). Nature of the assay: Inhibition of DNA-PK (unknown origin) at 50 nM by Z'LYTE screening method relative to control.
Sequence of DNA-dependent protein kinase catalytic subunit (Homo sapiens) (P78527 whole entry): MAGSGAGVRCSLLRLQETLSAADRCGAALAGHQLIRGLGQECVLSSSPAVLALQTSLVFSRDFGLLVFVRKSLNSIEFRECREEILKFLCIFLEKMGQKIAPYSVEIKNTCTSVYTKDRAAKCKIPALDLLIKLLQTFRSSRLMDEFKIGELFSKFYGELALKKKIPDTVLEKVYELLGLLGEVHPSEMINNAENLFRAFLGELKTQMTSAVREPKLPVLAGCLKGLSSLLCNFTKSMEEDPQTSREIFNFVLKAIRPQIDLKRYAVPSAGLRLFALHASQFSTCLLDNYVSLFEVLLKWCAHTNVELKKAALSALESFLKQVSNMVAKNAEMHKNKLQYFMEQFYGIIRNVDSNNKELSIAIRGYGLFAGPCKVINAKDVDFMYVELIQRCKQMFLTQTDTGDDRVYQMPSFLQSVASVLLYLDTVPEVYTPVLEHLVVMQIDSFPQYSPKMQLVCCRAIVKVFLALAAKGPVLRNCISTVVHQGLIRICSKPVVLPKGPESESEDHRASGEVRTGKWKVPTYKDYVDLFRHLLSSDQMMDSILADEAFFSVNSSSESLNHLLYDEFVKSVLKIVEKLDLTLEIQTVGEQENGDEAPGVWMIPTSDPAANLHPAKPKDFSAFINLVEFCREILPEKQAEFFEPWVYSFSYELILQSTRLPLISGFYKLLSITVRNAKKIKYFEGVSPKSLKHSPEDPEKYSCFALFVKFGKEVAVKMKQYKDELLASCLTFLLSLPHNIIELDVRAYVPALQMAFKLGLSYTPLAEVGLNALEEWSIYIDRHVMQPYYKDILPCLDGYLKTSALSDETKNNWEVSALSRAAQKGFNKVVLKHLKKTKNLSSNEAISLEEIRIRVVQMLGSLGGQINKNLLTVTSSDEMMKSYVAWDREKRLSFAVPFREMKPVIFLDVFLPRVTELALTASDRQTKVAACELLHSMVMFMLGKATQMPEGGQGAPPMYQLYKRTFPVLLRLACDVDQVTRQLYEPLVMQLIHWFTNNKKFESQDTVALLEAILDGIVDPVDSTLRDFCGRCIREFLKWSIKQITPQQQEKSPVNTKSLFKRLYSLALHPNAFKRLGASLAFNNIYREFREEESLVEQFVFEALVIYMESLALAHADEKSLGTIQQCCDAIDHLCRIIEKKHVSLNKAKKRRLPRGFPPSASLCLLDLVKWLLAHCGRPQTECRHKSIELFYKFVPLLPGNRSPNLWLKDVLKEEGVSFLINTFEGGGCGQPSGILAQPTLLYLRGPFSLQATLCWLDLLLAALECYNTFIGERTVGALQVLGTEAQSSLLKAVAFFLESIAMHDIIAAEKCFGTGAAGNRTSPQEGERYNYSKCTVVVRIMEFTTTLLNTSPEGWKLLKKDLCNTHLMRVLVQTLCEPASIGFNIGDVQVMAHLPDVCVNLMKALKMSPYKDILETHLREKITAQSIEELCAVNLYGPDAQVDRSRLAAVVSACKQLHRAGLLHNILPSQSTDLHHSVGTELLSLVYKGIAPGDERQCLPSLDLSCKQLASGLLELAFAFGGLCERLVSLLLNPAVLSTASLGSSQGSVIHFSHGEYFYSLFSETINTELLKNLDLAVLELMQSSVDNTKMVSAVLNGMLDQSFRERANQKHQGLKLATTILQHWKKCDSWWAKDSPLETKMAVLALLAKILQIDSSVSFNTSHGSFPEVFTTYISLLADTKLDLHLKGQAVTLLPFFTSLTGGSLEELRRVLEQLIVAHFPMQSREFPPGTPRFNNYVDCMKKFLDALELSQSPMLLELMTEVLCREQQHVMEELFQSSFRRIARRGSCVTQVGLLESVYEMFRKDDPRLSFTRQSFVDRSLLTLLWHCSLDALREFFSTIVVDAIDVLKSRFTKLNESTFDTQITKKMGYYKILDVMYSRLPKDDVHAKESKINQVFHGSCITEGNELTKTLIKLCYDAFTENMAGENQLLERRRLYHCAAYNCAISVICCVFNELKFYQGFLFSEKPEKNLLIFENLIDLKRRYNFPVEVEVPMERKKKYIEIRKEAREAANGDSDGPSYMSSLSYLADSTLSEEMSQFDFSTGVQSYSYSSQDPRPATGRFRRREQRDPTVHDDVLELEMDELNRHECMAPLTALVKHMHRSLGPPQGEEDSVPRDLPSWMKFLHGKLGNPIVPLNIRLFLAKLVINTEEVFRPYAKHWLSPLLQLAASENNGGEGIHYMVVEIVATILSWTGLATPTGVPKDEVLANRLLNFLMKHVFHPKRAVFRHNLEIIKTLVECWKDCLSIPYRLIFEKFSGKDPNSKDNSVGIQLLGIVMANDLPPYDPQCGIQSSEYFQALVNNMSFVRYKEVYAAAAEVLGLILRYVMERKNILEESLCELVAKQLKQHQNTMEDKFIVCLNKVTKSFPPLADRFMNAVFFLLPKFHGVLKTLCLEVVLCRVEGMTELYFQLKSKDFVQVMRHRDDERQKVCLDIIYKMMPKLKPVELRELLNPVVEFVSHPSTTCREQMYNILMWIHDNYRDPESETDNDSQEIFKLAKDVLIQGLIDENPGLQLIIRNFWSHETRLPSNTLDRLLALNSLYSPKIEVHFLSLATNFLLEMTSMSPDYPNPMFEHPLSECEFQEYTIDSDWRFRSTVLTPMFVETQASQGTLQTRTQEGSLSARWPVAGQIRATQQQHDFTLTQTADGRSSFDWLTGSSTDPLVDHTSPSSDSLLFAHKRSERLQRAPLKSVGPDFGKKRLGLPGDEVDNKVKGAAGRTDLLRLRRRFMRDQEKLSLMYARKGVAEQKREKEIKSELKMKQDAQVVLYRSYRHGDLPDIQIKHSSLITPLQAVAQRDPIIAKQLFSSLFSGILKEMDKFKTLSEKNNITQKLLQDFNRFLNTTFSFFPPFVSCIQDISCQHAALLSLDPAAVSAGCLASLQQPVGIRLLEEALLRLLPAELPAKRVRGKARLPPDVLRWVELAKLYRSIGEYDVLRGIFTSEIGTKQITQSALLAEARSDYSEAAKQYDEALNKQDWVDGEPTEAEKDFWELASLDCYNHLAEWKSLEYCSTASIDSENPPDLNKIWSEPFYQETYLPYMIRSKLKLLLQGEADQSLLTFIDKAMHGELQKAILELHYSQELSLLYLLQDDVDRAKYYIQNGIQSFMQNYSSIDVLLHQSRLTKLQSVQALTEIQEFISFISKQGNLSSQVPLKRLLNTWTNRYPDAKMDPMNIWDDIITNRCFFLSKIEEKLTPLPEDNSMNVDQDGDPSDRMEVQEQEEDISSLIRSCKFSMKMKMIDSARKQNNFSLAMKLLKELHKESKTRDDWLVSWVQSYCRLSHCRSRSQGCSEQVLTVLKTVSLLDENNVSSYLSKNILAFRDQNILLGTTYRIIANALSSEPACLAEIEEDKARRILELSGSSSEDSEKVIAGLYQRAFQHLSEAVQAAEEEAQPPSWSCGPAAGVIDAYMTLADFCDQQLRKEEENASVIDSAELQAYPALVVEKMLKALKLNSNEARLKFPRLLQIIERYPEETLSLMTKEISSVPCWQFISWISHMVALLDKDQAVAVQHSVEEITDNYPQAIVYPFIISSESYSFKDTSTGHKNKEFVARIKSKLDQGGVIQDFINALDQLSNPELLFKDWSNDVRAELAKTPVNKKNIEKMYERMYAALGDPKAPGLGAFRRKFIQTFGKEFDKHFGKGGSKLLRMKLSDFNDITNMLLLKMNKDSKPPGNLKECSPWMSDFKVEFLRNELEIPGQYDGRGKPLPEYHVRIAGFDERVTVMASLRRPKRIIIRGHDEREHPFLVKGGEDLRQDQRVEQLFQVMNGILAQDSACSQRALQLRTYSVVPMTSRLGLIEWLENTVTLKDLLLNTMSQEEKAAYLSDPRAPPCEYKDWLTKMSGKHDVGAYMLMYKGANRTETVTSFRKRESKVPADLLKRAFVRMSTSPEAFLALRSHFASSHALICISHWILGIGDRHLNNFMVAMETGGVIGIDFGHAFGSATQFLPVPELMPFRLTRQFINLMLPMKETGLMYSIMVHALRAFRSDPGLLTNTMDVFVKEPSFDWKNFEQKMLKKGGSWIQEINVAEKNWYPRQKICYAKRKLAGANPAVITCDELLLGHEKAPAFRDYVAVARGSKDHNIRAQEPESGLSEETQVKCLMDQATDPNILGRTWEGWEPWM
The target in assay [7] is Vascular endothelial growth factor receptor 1 (Homo sapiens) (UniProt P17948). Nature of the assay: Inhibition of FLT1/VEGFR1(unknown origin) at 50 nM by Z'LYTE screening method relative to control.
In assay [8] the target is Focal adhesion kinase 1 (Homo sapiens) (UniProt Q05397). Nature of the assay: Inhibition of FAK (unknown origin) at 50 nM by Z'LYTE screening method relative to control.
Sequence of Focal adhesion kinase 1 (Homo sapiens) (Q05397 2-1052 limits assumed): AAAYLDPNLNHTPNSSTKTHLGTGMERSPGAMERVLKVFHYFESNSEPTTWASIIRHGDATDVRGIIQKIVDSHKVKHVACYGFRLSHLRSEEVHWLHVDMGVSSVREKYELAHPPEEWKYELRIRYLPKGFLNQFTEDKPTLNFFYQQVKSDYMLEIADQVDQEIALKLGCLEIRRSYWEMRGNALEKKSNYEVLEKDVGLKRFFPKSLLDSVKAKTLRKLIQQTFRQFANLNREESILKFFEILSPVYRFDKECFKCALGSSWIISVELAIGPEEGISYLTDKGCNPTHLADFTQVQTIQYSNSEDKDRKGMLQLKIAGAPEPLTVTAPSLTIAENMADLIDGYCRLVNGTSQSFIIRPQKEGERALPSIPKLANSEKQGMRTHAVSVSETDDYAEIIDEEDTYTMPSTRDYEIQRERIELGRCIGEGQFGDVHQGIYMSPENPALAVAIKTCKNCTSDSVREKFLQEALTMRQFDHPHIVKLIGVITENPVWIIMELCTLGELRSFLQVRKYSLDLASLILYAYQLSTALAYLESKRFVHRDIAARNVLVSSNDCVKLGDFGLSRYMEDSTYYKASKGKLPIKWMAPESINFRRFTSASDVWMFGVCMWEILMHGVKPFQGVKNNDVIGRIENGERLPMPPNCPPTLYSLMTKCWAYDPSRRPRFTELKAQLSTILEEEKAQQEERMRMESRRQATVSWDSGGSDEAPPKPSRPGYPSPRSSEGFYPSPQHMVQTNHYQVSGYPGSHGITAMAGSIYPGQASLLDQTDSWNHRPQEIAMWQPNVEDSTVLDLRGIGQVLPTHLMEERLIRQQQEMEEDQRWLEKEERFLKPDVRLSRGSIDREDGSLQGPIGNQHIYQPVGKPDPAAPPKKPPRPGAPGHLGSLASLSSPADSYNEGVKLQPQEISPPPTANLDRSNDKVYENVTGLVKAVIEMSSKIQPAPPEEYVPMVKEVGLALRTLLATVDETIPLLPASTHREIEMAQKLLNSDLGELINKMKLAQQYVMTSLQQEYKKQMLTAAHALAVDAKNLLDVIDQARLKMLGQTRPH
Assay [9] addresses Mitogen-activated protein kinase 8 (Homo sapiens) (UniProt P45983). Description: Inhibition of MAPK8 (unknown origin) at 50 nM by Z'LYTE screening method relative to control.
Assay [10] has as its target T2, Protein kinase C zeta type (Homo sapiens) (UniProt Q05513).
T2 sequence (whole entry): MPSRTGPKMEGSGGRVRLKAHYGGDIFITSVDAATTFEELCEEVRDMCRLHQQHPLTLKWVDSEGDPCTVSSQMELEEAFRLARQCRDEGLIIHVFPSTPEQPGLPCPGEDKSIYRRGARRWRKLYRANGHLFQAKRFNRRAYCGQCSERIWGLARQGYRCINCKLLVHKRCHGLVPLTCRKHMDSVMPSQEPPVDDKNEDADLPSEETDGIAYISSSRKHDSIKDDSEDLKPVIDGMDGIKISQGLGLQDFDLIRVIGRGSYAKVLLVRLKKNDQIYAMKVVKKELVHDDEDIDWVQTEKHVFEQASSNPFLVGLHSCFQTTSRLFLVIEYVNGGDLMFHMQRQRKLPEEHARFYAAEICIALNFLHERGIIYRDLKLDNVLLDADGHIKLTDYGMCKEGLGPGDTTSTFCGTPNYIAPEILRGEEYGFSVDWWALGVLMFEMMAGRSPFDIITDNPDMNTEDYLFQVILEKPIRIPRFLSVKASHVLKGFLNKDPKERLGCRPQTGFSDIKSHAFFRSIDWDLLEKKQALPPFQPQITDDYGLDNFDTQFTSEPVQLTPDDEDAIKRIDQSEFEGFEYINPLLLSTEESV
Description: Inhibition of PKCzeta (unknown origin) at 50 nM by Z'LYTE screening method relative to control.

Assay [11] addresses T3, Serine/threonine-protein kinase D3 (Homo sapiens) (UniProt O94806).
T3 sequence (whole entry): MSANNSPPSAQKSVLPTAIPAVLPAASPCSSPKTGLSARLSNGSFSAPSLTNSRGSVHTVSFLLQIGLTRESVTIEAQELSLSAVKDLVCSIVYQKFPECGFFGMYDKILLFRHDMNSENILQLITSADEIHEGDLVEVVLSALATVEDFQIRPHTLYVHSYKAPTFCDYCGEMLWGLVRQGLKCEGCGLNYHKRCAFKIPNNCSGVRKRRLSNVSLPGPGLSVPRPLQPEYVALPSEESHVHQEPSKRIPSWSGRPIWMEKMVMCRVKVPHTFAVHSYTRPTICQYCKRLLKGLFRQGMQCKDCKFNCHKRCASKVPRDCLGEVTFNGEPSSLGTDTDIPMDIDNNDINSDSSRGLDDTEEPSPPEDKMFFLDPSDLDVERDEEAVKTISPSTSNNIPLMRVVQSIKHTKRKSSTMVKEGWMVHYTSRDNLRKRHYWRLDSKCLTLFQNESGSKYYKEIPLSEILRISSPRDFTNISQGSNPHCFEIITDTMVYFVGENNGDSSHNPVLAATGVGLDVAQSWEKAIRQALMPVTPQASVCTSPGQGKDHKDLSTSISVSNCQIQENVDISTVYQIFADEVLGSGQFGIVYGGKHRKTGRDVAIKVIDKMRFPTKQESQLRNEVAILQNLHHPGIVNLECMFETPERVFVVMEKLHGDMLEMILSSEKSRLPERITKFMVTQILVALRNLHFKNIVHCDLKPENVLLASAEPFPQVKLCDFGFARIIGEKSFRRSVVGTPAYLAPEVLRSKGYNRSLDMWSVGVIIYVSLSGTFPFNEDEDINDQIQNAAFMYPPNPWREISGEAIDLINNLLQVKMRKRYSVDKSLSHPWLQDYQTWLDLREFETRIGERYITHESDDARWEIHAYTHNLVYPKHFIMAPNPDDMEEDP
Nature of the assay: Inhibition of PKCnu (unknown origin) at 50 nM by Z'LYTE screening method relative to control.

In the case of `O=c1c2ccccc2[se]n1-c1nc(N[C@H]2CC[Se]C2)c2nc[nH]c2n1`, the inhibition in assay [1] worked out at 1%; in assay [2], 5%; in [3], 3%; in assay [4], 2%; in assay [5], 47%; in assay [6], 0%. Also, the inhibition in assay [7] came out at 0%; in assay [8] it was 0%; in [9], 0%; in [10], 12%; in [11], 6%.

By inhibition is commonly meant the drop in the measured response relative to a control, in per cent. High values mean a strong effect, low ones a weak effect.
